Measured values published in ChEMBL document CHEMBL1909046, “DrugMatrix in vitro pharmacology data”.

Assays:
[1] = target: T1, Alpha-1D adrenergic receptor (Homo sapiens, UniProt P25100); format: cell membranes, HEK293, Membrane; conditions: hek293; further: in other assays of this panel Not Active means under 50% inhibition at 10 µM
T1 sequence (P25100 whole entry): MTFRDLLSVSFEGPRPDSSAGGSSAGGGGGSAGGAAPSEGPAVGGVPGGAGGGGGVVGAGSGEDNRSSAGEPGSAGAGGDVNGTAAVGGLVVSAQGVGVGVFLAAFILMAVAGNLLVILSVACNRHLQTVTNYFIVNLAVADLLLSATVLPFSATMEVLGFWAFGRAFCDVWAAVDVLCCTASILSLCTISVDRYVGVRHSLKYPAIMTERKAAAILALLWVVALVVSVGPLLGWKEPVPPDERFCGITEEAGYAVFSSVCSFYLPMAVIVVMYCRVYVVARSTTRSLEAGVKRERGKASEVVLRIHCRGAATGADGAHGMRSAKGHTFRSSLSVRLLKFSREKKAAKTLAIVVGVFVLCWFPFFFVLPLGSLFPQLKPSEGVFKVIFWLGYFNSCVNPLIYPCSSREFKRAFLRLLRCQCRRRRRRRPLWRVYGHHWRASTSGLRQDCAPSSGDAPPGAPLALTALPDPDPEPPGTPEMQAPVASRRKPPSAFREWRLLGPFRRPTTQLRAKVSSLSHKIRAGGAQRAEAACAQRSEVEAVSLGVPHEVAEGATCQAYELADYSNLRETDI

[2] = DRUGMATRIX: Calcium Channel Type L, Dihydropyridine radioligand binding (ligand: [3H] Nitrendipine); format: cell membranes, Rattus norvegicus, Wistar, Cerebral cortex, Membrane; conditions: Not Active = under 50% inhibition at 10 µM
Carbonic anhydrase 2 = Carbonic anhydrase 2 (Homo sapiens, UniProt P00918); assay: DRUGMATRIX: Carbonic Anhydrase II enzyme inhibition (substrate: 4-Nitrophenyl acetate (4-NPA)); format: tissue-based, Erythrocyte; conditions: erythrocyte; Not Active = under 50% inhibition at 10 µM
[3] = target: C-C chemokine receptor type 5 (Homo sapiens, UniProt P51681); format: cell membranes, Membrane; conditions: hek293; further: in other assays of this panel Not Active means under 50% inhibition at 10 µM
Progesterone receptor = target: T2, Progesterone receptor (Bos taurus, UniProt Q690N0); assay: DRUGMATRIX: Progesterone radioligand binding (ligand: [3H] R-5020); format: tissue-based, Uterus; conditions: Not Active = under 50% inhibition at 10 µM
T2 sequence (Q690N0 whole entry): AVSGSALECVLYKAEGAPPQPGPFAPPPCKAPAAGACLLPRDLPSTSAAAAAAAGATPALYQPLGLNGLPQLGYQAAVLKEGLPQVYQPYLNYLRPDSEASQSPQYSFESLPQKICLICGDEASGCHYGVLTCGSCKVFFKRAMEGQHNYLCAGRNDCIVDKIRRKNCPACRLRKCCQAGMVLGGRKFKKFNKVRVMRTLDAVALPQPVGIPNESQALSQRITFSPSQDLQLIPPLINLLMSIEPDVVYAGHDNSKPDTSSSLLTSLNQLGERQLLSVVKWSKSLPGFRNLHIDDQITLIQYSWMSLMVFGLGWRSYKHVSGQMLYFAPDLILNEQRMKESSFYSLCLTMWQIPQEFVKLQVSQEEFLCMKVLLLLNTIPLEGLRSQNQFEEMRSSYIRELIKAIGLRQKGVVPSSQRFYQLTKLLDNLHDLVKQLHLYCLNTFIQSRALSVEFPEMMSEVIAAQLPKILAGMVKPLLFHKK

[4] = target: 5-hydroxytryptamine receptor 1B (Rattus norvegicus, UniProt P28564); format: cell membranes, Wistar, Cerebral cortex, Membrane; further: in other assays of this panel Not Active means under 50% inhibition at 10 µM
Chain of 5-hydroxytryptamine receptor 1B (P28564 whole entry): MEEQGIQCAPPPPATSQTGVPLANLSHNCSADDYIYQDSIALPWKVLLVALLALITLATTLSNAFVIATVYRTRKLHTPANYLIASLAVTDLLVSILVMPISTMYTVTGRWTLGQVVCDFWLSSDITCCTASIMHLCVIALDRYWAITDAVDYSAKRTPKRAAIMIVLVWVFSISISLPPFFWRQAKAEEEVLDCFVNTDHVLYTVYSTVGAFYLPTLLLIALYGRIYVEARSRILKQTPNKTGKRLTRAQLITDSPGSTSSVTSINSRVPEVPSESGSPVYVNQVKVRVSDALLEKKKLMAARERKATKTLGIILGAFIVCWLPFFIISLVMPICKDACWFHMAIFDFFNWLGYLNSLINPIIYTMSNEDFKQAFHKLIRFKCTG

Chain of C-C chemokine receptor type 5 (P51681 whole entry): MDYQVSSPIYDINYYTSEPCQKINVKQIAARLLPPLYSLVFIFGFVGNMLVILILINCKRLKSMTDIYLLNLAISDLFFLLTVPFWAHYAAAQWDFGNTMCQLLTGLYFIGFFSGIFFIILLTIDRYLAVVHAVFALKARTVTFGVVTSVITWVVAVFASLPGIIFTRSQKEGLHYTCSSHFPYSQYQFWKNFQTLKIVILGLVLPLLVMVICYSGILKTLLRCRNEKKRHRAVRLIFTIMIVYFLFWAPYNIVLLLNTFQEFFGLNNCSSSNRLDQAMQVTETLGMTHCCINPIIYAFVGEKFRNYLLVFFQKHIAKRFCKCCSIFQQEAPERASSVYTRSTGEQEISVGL

Compound | IC50 [1] | IC50 [2] | Ki [2] | IC50 (Carbonic anhydrase 2) | IC50 [3] | IC50 (Progesterone receptor) | IC50 [4] | IC50 (Progesterone receptor; read-out: IC50) [nM] | Ki (Progesterone receptor; read-out: Ki) [nM] | Ki [1] | Ki (Carbonic anhydrase 2) | Ki [3] | Ki (Progesterone receptor) | Ki [4]
C[C@]12CCC(=O)C=C1CC[C@@H]1[C@@H]2[C@@H](O)C[C@@]2(C)[C@H]1CC[C@]2(O)C(=O)CO [HYDROCORTISONE] | Not Active | Not Active | Not Active | Not Active | Not Active | Not Active | Not Active |  |  |  |  |  |  | 
C/C=C\c1ccc(O)c(OC)c1 [ISOEUGENOL] | Not Active | Not Active | Not Active | Not Active | Not Active | Not Active | Not Active |  |  |  |  |  |  | 
NC[C@H]1O[C@H](O[C@H]2[C@H](O)[C@@H](O[C@H]3O[C@H](CO)[C@@H](O)[C@H](N)[C@H]3O)[C@H](N)C[C@@H]2N)[C@H](O)[C@@H](O)[C@@H]1O [KANAMYCIN] | Not Active | Not Active | Not Active | Not Active | Not Active | Not Active | Not Active |  |  |  |  |  |  | 
CC[C@H](C)C(=O)O[C@H]1C[C@@H](C)C=C2C=C[C@H](C)[C@H](CC[C@@H]3C[C@@H](O)CC(=O)O3)[C@H]21 [LOVASTATIN] | Not Active | Not Active | Not Active | Not Active | Not Active | Not Active | Not Active |  |  |  |  |  |  | 
CC(C(=O)O)c1ccc(CC2CCCC2=O)cc1 (centres undefined) [LOXOPROFEN] | Not Active | Not Active | Not Active | Not Active | Not Active | Not Active | Not Active |  |  |  |  |  |  | 
Cc1cccc(Nc2ccccc2C(=O)O)c1C [MEFENAMIC ACID] | Not Active | Not Active | Not Active | Not Active | Not Active | Not Active | Not Active |  |  |  |  |  |  | 
CC(=O)O[C@]1(C(C)=O)CC[C@H]2[C@@H]3C=C(C)C4=CC(=O)CC[C@]4(C)[C@H]3CC[C@@]21C [MEGESTROL ACETATE] | Not Active | Not Active | Not Active | Not Active | Not Active |  | Not Active | 11 | 1.44 |  |  |  |  | 
COc1ccccc1OCC(O)COC(N)=O (centres undefined) [METHOCARBAMOL] | Not Active | Not Active | Not Active | Not Active | Not Active | Not Active | Not Active |  |  |  |  |  |  | 
CN(Cc1cnc2nc(N)nc(N)c2n1)c1ccc(C(=O)N[C@@H](CCC(=O)O)C(=O)O)cc1 [METHOTREXATE] | Not Active | Not Active | Not Active | Not Active | Not Active | Not Active | Not Active |  |  |  |  |  |  | 
COC(=O)c1ccccc1O [METHYL SALICYLATE] | Not Active | Not Active | Not Active | Not Active | Not Active | Not Active | Not Active |  |  |  |  |  |  | 
COc1ccc2cc(CCC(C)=O)ccc2c1 [NABUMETONE] | Not Active | Not Active | Not Active | Not Active | Not Active | Not Active | Not Active |  |  |  |  |  |  | 
O=C(O)c1cccnc1 [NIACIN] | Not Active | Not Active | Not Active | Not Active | Not Active | Not Active | Not Active |  |  |  |  |  |  | 
CNC(=C[N+](=O)[O-])NCCSCc1csc(CN(C)C)n1 [NIZATIDINE] | Not Active | Not Active | Not Active | Not Active | Not Active | Not Active | Not Active |  |  |  |  |  |  | 
C[C@]12C/C(=C/O)C(=O)C[C@@H]1CC[C@@H]1[C@@H]2CC[C@@]2(C)[C@H]1CC[C@]2(C)O [OXYMETHOLONE] | Not Active | Not Active | Not Active | Not Active | Not Active | Not Active | Not Active |  |  |  |  |  |  | 
CC(C)(CO)C(O)C(=O)NCCCO (centres undefined) [PANTHENOL] | Not Active | Not Active | Not Active | Not Active | Not Active | Not Active | Not Active |  |  |  |  |  |  | 
COc1ccc(Cc2nccc3cc(OC)c(OC)cc23)cc1OC [PAPAVERINE] | Not Active | Not Active | Not Active | Not Active | Not Active | Not Active | Not Active |  |  |  |  |  |  | 
OCCN1CCN(CCCN2c3ccccc3Sc3ccc(Cl)cc32)CC1 [PERPHENAZINE] | Not Active | Not Active | Not Active | Not Active | Not Active | Not Active | Not Active |  |  |  |  |  |  | 
CCCCC1C(=O)N(c2ccccc2)N(c2ccccc2)C1=O [PHENYLBUTAZONE] | Not Active | Not Active | Not Active | Not Active | Not Active | Not Active | Not Active |  |  |  |  |  |  | 
Cc1cccc(Nc2cc(Cl)nc(SCC(=O)O)n2)c1C [PIRINIXIC ACID] | Not Active | Not Active | Not Active | Not Active | Not Active | Not Active | Not Active |  |  |  |  |  |  | 
CC[C@H](C)C(=O)O[C@H]1C[C@H](O)C=C2C=C[C@H](C)[C@H](CC[C@@H](O)C[C@@H](O)CC(=O)O)[C@H]21 [PRAVASTATIN] | Not Active | Not Active | Not Active | Not Active | Not Active | Not Active | Not Active |  |  |  |  |  |  | 
CC(C)(Sc1cc(C(C)(C)C)c(O)c(C(C)(C)C)c1)Sc1cc(C(C)(C)C)c(O)c(C(C)(C)C)c1 [PROBUCOL] | Not Active | Not Active | Not Active | Not Active | Not Active | Not Active | Not Active |  |  |  |  |  |  | 
COBALT(II) ACETYLACETONATE | Not Active | Not Active | Not Active | Not Active | Not Active | Not Active | Not Active |  |  | Not Active | Not Active | Not Active | Not Active | Not Active
INSULIN HUMAN | Not Active | Not Active | Not Active | Not Active | Not Active | Not Active | Not Active |  |  | Not Active | Not Active | Not Active | Not Active | Not Active
POLYVINYL ALCOHOL | Not Active | Not Active | Not Active | Not Active | Not Active | Not Active | Not Active |  |  | Not Active | Not Active | Not Active | Not Active | Not Active
